In patent US20170066717A1, “NEW PHENYLAZETIDINECARBOXYLATE OR -CARBOXAMIDE COMPOUNDS” (INVENTIVA, priority 2014, published 2017):

How the values were obtained:
NURR-1/RXRγ = target: T1, NURR-1/RXRγ (Homo sapiens, UniProt P48443); experiment: Transactivation test, NURR-1-Gal4/RXRγ, luciferase reporter in Cos-7 cells; assay type: cell-based; conditions: for Emax: COS-7, induction level relative to reference XCT0135908 at 2×10^−5 M (=100%), read-out: hNurr1_RXRgFL Emax (%); for EC50: Cos-7 cells, NURR-1-Gal4/RXRγ, luciferase reporter, read-out: hNurr1_RXRgFL EC50
T1 construct: expressed in transfected cells; host or cells: Cos-7 cells
T1 sequence (P48443 whole entry, the tested form may be a part): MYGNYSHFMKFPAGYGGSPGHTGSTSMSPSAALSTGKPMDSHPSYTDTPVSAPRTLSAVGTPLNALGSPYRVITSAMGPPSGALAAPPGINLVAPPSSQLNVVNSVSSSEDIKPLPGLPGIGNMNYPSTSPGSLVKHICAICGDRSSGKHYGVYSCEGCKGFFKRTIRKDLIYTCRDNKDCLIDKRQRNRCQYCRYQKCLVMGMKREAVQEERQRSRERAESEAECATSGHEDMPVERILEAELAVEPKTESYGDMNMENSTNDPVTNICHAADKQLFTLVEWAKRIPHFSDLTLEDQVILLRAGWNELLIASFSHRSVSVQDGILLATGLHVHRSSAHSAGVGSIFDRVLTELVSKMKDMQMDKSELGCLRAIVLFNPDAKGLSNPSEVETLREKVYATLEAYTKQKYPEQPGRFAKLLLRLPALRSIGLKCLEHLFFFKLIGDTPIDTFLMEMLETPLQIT
T1 sequence (P43354 whole entry partner, the tested form may be a part): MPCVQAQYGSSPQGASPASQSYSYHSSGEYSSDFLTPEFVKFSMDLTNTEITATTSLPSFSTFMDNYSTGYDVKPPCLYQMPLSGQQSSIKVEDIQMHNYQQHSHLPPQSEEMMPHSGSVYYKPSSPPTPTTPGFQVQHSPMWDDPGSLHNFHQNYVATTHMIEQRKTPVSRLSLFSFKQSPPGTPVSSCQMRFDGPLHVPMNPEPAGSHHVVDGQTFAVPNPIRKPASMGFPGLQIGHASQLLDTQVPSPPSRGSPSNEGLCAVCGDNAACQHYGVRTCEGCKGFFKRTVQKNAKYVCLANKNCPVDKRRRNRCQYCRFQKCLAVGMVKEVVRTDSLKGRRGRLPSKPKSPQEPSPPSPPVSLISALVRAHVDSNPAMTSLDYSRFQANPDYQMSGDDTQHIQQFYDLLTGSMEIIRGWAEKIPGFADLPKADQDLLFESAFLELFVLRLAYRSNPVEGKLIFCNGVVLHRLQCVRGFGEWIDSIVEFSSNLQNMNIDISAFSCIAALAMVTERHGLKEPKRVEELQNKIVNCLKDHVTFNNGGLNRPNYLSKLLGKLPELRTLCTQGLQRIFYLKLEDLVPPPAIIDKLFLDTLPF
T1 sequence (P04386 1-147 partner limits assumed): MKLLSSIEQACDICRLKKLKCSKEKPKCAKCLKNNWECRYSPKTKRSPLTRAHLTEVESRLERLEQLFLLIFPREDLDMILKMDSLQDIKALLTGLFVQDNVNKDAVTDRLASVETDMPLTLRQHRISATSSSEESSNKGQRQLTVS
Experimental: (§1) The ability of the compounds according to the invention to behave as an activator of the heterodimers formed by the NURR-1 nuclear receptor and the RXR nuclear receptors was measured by means of an in vitro test. A transactivation test was used as primary selection (screening) test. Cos-7 cells were cotransfected with a plasmid expressing a chimera of the human NURR-1-Gal4 receptor, a plasmid expressing the human RXR receptor (RXRα or RXRγ receptor) and a 5Gal4pGL3-TK-Luc reporter plasmid. The transfctions were carried out using a chemical agent (Jet PEI). The transfected cells were distributed into 384-well plates and left to stand for 21 hours. At time 24 hours the culture medium was changed. The test products were added (final concentration of between 10^''4 and 3×10^-10 M) to the culture medium. After incubation overnight, the lucifeiase expression was measured after addition of SteadyGlo according to the instructions of the manufacturer (Promega). […] The induction levels (Emax) were calculated relative to the basal activity of each heterodimer.

NURR-1/RXRα = target: T2, NURR-1/RXRα (Homo sapiens, UniProt P19793); experiment: Transactivation test, NURR-1-Gal4/RXRα, luciferase reporter in Cos-7 cells; assay type: cell-based; conditions: for Emax: COS-7, induction level relative to reference XCT0135908 at 2×10^−5 M (=100%), read-out: hNurr1_RXRaFL Emax (%); for EC50: Cos-7 cells, NURR-1-Gal4/RXRα, luciferase reporter, read-out: hNurr1_RXRaFL EC50
T2 construct: expressed in transfected cells; host or cells: Cos-7 cells
T2 sequence (P19793 whole entry, the tested form may be a part): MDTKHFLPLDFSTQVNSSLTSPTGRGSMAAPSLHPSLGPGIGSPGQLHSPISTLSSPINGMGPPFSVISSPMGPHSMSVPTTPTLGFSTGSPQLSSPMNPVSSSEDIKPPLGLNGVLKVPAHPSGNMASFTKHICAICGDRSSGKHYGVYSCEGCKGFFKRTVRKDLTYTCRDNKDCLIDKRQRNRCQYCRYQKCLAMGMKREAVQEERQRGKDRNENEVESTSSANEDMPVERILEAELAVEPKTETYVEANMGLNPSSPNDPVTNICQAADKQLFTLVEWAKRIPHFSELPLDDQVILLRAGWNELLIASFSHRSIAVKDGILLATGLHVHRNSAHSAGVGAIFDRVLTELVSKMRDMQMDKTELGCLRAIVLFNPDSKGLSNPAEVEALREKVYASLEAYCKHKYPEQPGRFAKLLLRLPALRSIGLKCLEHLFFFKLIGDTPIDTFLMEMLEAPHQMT
T2 sequence (P43354 whole entry partner, the tested form may be a part): as the sequence (P43354 whole entry partner, the tested form may be a part) above
T2 sequence (P04386 1-147 partner limits assumed): as the sequence (P04386 1-147 partner limits assumed) above
Experimental: as §1

CCCCNC(=O)C1CN(c2cccc(-n3cc(C)c4cc(C(F)(F)F)ccc43)c2)C1 [Example 169, N-butyl-1-[3-[3-methyl-5-(trifluoromethyl)indol-1-yl]phenyl]azetidine-3-carboxamide]
Emax (NURR-1/RXRγ): 149%
EC50 (NURR-1/RXRγ): 26 nM
Emax (NURR-1/RXRα): 109%
EC50 (NURR-1/RXRα): 13 nM

Cc1cn(-c2cccc(N3CC(C(=O)NCCN4CCN(C)CC4)C3)c2)c2ccc(C(F)(F)F)cc12 [Example 181, N-[2-(4-methylipiperazin-1-yl)ethyl]-1-[3-[3-methyl-5-(trifluoromethyl)indol-1-yl]phenyl]azetidine-3-carboxamide]
Emax (NURR-1/RXRγ): 96%
EC50 (NURR-1/RXRγ): 293 nM
Emax (NURR-1/RXRα): 103%
EC50 (NURR-1/RXRα): 168 nM

Cn1cc(-c2cccc(N3CC(C(=O)O)C3)c2)c2ccc(C(F)(F)F)cc21 [Example 30, 1-[3-[1-methyl-6-(trifluoromethyl)indol-3-yl]phenyl]azetidine-3-carboxylic acid]
Emax (NURR-1/RXRγ): 97%
EC50 (NURR-1/RXRγ): 42 nM
Emax (NURR-1/RXRα): 102%
EC50 (NURR-1/RXRα): 14 nM

CC1(C)CN(c2cccc(N3CC(C(=O)NCCCO)C3)c2)c2ccc(C(F)(F)F)cc2O1 [Example 278, 1-[3-[2,2-dimethyl-7-(trifgluoromethyl)-3H-1,4-benzoxazin-4-yl]phenyl]-N-(3-hydroxypropyl)azetidine-3-carboxamide]
Emax (NURR-1/RXRγ): 117%
EC50 (NURR-1/RXRγ): 74 nM
Emax (NURR-1/RXRα): 110%
EC50 (NURR-1/RXRα): 29 nM

CC1(C)CN(CC(F)(F)F)c2c(cc(C(F)(F)F)cc2-c2cccc(N3CC(C(=O)O)C3)c2)O1 [Example 215, tert-butylammonium 1-[3-[2,2-dimethyl-4 (2,2,2-trifluoromethyl)-7-(trifluoromethyl)-3H-1,4-benzoxazin-5-yl]phenyl]azetidine-3-carboxylate]
Emax (NURR-1/RXRα): 61%
EC50 (NURR-1/RXRα): 1 nM

Cc1cc(-c2cccc(C(C)(C)O)c2)cc(N2CC(C(=O)O)C2)c1 [Example 20, 1-[3-[3-(1-hydroxy-1-methylethyl)phenyl]-5-methylphenyl]azetidine-3-carboxylic acid]
Emax (NURR-1/RXRγ): 69%
EC50 (NURR-1/RXRγ): > 5000 nM
Emax (NURR-1/RXRα): 87%
EC50 (NURR-1/RXRα): 2090 nM

CC1(C)Oc2cc(C#N)ccc2N(c2cccc(N3CC(C(=O)O)C3)c2)C1=O [Example 254, tert-butylammonium 1-[3-(7-cyano-2,2-dimethyl-3-oxo-1,4-benzoxazin-4-yl)phenyl]azetidine-3-carboxylate]
Emax (NURR-1/RXRα): 70%
EC50 (NURR-1/RXRα): 2950 nM

CC(C)c1ccc2c(c1)CC(C)(C)CN2c1cccc(N2CC(C(=O)O)C2)c1 [Example 245, tert-butylammonium 1-[3-(6-isopropyl-3,3-dimethyl-2,4-dihydroquinolin-1-yl)phenyl]azetidine-3-carboxylate]
Emax (NURR-1/RXRα): 89%
EC50 (NURR-1/RXRα): 114 nM

CN1CC2(CCC2)Oc2cc(C(C)(C)C)cc(-c3cccc(N4CC(C(=O)O)C4)c3)c21 [Example 213, tert-butylammonium 1-[3-(7-tert-butyl-4-methyl-spiro[3H-1,4-benzoxazine-2,1′-cyclobutane]-5-yl)phenyl]azetidine-3-carboxylate]
Emax (NURR-1/RXRα): 77%
EC50 (NURR-1/RXRα): 0.79 nM

CC(C)COc1ccc(C(F)(F)F)cc1-c1cccc(N2CC(C(=O)O)C2)c1 [Example 94, 1-[3-[2-isobutoxy-5-(trifluoromethyl)phenyl]phenyl]azetidine-3-carboxylic acid]
Emax (NURR-1/RXRα): 48%
EC50 (NURR-1/RXRα): 18 nM

CC1(C)CC(c2cccc(N3CC(C(=O)O)C3)c2)c2ccc(C(F)(F)F)cc2O1 (stereo not shown) [Example 270, tert-butylammonium 1-[3-[2,2-dimethyl-7-(trifluoromethyl)chroman-4-yl]phenyl]azetidine-3-carboxylate]
Emax (NURR-1/RXRα): 99%
EC50 (NURR-1/RXRα): 5 nM

COc1ccccc1C(C)Oc1ccc(C(F)(F)F)cc1-c1cccc(N2CC(C(=O)O)C2)c1 (stereo not shown) [Example 95, 1-[3-[2-[1-(2-methoxyphenyl)ethoxy]-5-(triflurooemethyl)phenyl]phenyl]azetidine-3-carboxylic acid]
Emax (NURR-1/RXRα): 46%
EC50 (NURR-1/RXRα): 20 nM
